The source of these data is US6680322B2, “Compounds specific to adenosine A1 receptors and uses thereof” (OSI Pharmaceuticals, Inc., priority 1999, dated 2004).

In data set [1] the target is T1, human A2a receptor subtype (Homo sapiens, UniProt P29274).
T1 construct: expressed in transfected cells; host or cells: HEK-293 (Cadus clone #5)
As to the kind of experiment: Adenosine 2a receptor subtype competition radioligand binding ([3H]CGS-21680, HEK293 membranes). The note with it: Table 13; % activity @ 10 μM (footnote 8).

The target in data set [2] is T2, human A1 receptor subtype (Homo sapiens, UniProt P30542).
T2 sequence (P30542 1-326): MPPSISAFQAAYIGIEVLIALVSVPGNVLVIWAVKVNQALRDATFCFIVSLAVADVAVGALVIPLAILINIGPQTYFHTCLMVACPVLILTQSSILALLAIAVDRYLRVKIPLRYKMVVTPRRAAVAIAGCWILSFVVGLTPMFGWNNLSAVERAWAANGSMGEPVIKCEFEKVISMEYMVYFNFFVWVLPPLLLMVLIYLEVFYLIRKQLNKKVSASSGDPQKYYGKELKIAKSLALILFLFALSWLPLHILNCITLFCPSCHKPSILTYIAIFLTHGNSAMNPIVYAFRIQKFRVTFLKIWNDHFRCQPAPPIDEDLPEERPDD

Data set [3] has as its target T3, human A1 adenosine receptor (Homo sapiens, UniProt P30542).
T3 sequence (P30542 1-326): T2 sequence (P30542 1-326)
As to conditions: cited from earlier work.

Data set [4] addresses T4, human A3 receptor subtype (Homo sapiens, UniProt P0DMS8).
T4 construct: expressed in transfected cells; host or cells: HEK293
T4 sequence (P0DMS8 1-318): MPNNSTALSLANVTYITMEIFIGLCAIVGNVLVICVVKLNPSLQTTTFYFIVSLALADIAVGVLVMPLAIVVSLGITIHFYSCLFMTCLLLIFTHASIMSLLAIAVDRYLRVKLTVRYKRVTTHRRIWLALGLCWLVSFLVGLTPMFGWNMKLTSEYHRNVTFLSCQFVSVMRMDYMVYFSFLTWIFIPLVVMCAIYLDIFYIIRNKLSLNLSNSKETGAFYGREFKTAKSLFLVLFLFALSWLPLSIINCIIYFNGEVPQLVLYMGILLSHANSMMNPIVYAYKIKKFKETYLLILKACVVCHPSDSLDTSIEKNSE
As to the kind of experiment: Adenosine 3 receptor competition radioligand binding ([125I]AB-MECA, HEK293 membranes). As to conditions: Table 13; % activity @ 10 μM (footnote 8).

T1 sequence (P29274 whole entry): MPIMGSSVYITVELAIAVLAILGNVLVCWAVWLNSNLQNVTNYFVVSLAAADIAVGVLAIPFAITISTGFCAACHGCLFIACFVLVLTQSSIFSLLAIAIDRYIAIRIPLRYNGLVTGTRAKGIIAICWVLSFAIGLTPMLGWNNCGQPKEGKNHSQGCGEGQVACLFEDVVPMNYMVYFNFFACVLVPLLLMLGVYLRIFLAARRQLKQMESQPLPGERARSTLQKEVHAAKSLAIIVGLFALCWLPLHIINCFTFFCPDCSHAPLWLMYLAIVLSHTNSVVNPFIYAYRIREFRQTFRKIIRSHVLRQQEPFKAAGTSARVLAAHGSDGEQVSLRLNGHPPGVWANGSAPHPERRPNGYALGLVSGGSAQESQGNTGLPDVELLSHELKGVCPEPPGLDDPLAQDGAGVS

`COC(=O)c1cc2c(NC3CCC(O)CC3)nc(-c3ccccc3)nc2[nH]1` (stereo not shown) [Compound 1627, 4-(4-Hydroxy-cyclohexylamino)-2-phenyl-7H-pyrrolo[2,3-d]pyrimidine-6-carboxylic Acid Methyl Ester]: the melting point lay within 225 to 227 °C.

For the molecule `NC(=O)C1CCCN1c1nc(-c2ccccc2)nc2[nH]c(C(=O)O)cc12` (stereo not shown) [Compound 1619, [4-(2-Carbamoylpyrrolidin-1-yl)-2-phenyl-7H-pyrrolo[2,3-d]pyrimidine-6-carboxylic Acid]], the melting point is 220 °C (dec.).

As for `CNC(=O)NCCCNc1nc(-c2ccccc2)nc2[nH]c(C)c(C)c12` [Compound 1310], the “A2a binding, % activity” value in data set [1] is on record as 76%.

`O[C@H]1CC[C@H](Nc2nc(-c3ccccc3)nc3[nH]c(CN4CCOCC4)cc23)CC1` [Compound 1503]: in data set [2] (Table 15), the “Ki-A1 (selectivity versus A2a, A2b, A3)” value is “* (at least 10 times more selective than other three subtypes)”.

Turning to `NC(=O)c1cc2c(NC3CCC(O)CC3)nc(-c3ccccc3)nc2[nH]1` (stereo not shown) [Compound 1630, 4-(4-Hydroxy-cyclohexylamino)-2-phenyl-7H-pyrrolo[2,3-d]pyrimidine-6-carboxylic Acid Amide], the melting point was 210 to 220 °C (dec.).

On to `CC(=O)NCCNc1nc(-c2ccccc2)nc2[nH]c(COc3ccccc3)cc12` [Example 17], for which the melting point was in the range of 196 to 197 °C.

For `COCc1cc2c(N3CCCC3C(N)=O)nc(-c3ccccc3)nc2[nH]1` (stereo not shown) [Compound 1605], the melting point was 213 to 215 °C.

`Cc1[nH]c2nc(-c3ccccc3)nc(NCCNC(=O)C3(N)CC3)c2c1C` [Compound 1313]: the “A2a binding, % activity” value in data set [1] is 65%. The “A1 binding, % activity” value in data set [2] (Table 13, % activity @ 10 μM (footnote 8)) came out at 30%.

With `NC(=O)[C@@H]1C[C@H](O)CN1c1nc(-c2ccccc2)nc2[nH]ccc12` [Compound 1606, 4-Hydroxy-1-(2-phenyl-7H-pyrrolo[2,3-d]pyrimidin-4-yl]-pyrrolidine-2-carboxylic Acid Amide], the melting point fell in the range of 268 to 271 °C.

As for `CC(Cc1ccccc1)Nc1ncnc2c1ncn2[C@@H]1O[C@H](CO)[C@@H](O)[C@H]1O` (single isomer, unassigned; (-)) [PIA, (−)-N6-(2-phenylisopropyl)-adenosine], in data set [3], the reported affinity result was “approximately 50 nM”.

Regarding `NC(=O)[C@@H]1CCCN1c1nc(-c2ccccc2)nc2[nH]ccc12` [Compound 1602], the melting point lay within 236 to 238 °C.

For the molecule `O[C@H]1CC[C@H](Nc2nc(-c3ccncc3)nc3[nH]ccc23)CC1` [Compound 1321], the “A3 binding, % activity” value in data set [4] is given as 54%^8.
